According to the supplement of paper PMC10307832:

Columns and labels:
Assay in all cases: relative viability (nuclei count vs DMSO), 5 days (fraction); higher = more cells survive
[1] = compound: O=C(Nc1cc(C(F)(F)F)cc(C(F)(F)F)c1)c1cc(Cl)ccc1O [IMD-0354] + C[C@@H](Oc1cc(-c2cnn(C3CCNCC3)c2)cnc1N)c1c(Cl)ccc(F)c1Cl [Crizotinib] (partner 1 µM)
How it was run: (§1)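 Lung cancer cell lines, seeded in 1536-well plates, were treated the following day by pin tool with a single drug or with five library-drug doses (not always all listed) in √10 steps on top of a fixed anchor-drug dose. Cells were fixed and nuclei stained in one step after 5 days, and nuclei were counted. Relative viability is the nuclei count for treated wells divided by that for vehicle wells, reported as medians of duplicate plates.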

[2] = compound: Cc1cnc(CNC(=O)c2c(=O)c3ccc(N4CCCN(C)CC4)nc3n3c2sc2ccccc23)cn1 [CX-5461] + Cc1cc(Nc2cc(N3CCN(C)CC3)nc(Sc3ccc(NC(=O)C4CC4)cc3)n2)n[nH]1 [Tozasertib] (partner 0.1 µM)
How it was run: as §1

[3] = compound: O=C(Nc1cc(C(F)(F)F)cc(C(F)(F)F)c1)c1cc(Cl)ccc1O [IMD-0354] + Nc1nc2[nH]cc(CCc3ccc(C(=O)N[C@@H](CCC(=O)O)C(=O)O)cc3)c2c(=O)[nH]1 [Pemetrexed] (partner 0.2 µM)
How it was run: as §1

[4] = compound: O=C(Nc1cc(C(F)(F)F)cc(C(F)(F)F)c1)c1cc(Cl)ccc1O [IMD-0354] + CC1(C)CCC(c2ccc(Cl)cc2)=C(CN2CCN(c3ccc(C(=O)NS(=O)(=O)c4ccc(N[C@H](CCN5CCOCC5)CSc5ccccc5)c(S(=O)(=O)C(F)(F)F)c4)cc3)CC2)C1 [Navitoclax] (partner 0.5 µM)
How it was run: as §1

| Cell Line | relative viability ([1]; first compound 0.04 µM) | relative viability ([1]; first compound 0.1265 µM) | relative viability ([1]; first compound 0.4 µM) | relative viability ([1]; first compound 1.265 µM) | relative viability ([1]; first compound 4 µM) | relative viability ([2]; first compound 0.01 µM) | relative viability ([2]; first compound 0.03162 µM) | relative viability ([2]; first compound 0.1 µM) | relative viability ([2]; first compound 0.3162 µM) | relative viability ([2]; first compound 1 µM) | relative viability ([3]; first compound 0.04 µM) | relative viability ([3]; first compound 0.1265 µM) | relative viability ([3]; first compound 0.4 µM) | relative viability ([3]; first compound 1.265 µM) | relative viability ([3]; first compound 4 µM) | relative viability ([4]; first compound 0.04 µM) | relative viability ([4]; first compound 0.1265 µM) | relative viability ([4]; first compound 0.4 µM) | relative viability ([4]; first compound 1.265 µM) | relative viability ([4]; first compound 4 µM) |
| --- | --- | --- | --- | --- | --- | --- | --- | --- | --- | --- | --- | --- | --- | --- | --- | --- | --- | --- | --- | --- |
| LXF-289 | 0.834 | 0.803 | 0.575 | 0.229 | 0.069 | 0.2 | 0.224 | 0.16 | 0.179 | 0.179 | 0.898 | 0.884 | 0.868 | 0.26 | 0.129 | 0.927 | 0.88 | 0.789 | 0.666 | 0.0776 |
| H3255 | 0.781 | 0.885 | 0.555 | 0.338 | 0.285 | 0.691 | 0.603 | 0.694 | 0.568 | 0.527 | 0.588 | 0.587 | 0.518 | 0.426 | 0.318 | 0.394 | 0.715 | 0.408 | 0.089 | 0.144 |
| 201T | 1.09 | 1.02 | 0.815 | 1 | 0.389 | 0.921 | 1.04 | 0.945 | 0.847 | 0.925 | 0.271 | 0.343 | 0.368 | 0.319 | 0.234 | 1.27 | 1.25 | 0.77 | 1 | 0.752 |
| NCI-H2126 | 1.03 | 0.997 | 0.878 | 0.6 | 0.322 | 0.842 | 0.842 | 0.758 | 0.765 | 0.668 | 0.74 | 0.722 | 0.569 | 0.37 | 0.266 | 0.905 | 0.817 | 0.673 | 0.79 | 0.269 |
| HOP-62 | 0.999 | 1.09 | 0.926 | 0.546 | 0.168 | 0.315 | 0.405 | 0.372 | 0.284 | 0.344 | 0.348 | 0.308 | 0.268 | 0.141 | 0.0739 | 1.02 | 0.976 | 0.504 | 0.78 | 0.295 |
| CAL-12T | 0.855 | 0.472 | 0.395 | 0.16 | 0.214 | 0.361 | 0.353 | 0.222 | 0.272 | 0.174 | 1.37 | 0.916 | 0.574 | 0.559 | 0.204 | 1.33 | 1.08 | 0.629 | 0.358 | 0.156 |
| NCI-H520 | 0.959 | 0.672 | 0.44 | 0.459 | 0.239 | 0.442 | 0.419 | 0.438 |  | 0.425 | 0.668 | 0.838 | 0.392 | 0.149 | 0.139 | 1.25 | 0.928 | 0.473 | 0.159 | 0.254 |
| NCI-H1755 | 0.925 | 0.965 | 0.46 | 0.31 | 0.17 | 0.49 | 0.568 | 0.565 | 0.529 | 0.467 | 0.458 | 0.407 | 0.387 | 0.375 | 0.291 | 1.1 | 1.05 | 0.591 | 0.481 | 0.16 |
| NCI-H2023 | 0.671 | 0.618 | 0.432 | 0.172 | 0.0868 | 0.306 | 0.325 | 0.237 | 0.283 | 0.0913 | 0.217 | 0.212 | 0.118 | 0.0926 | 0.103 | 1.16 | 1.05 | 0.561 | 0.257 | 0.121 |
| NCI-H2009 | 1.1 | 0.981 | 0.698 | 0.165 | 0.111 | 0.714 | 0.776 | 0.53 | 0.713 | 0.548 | 0.934 | 1 | 0.722 | 0.324 | 0.124 | 1.22 | 1.02 | 0.915 | 0.642 | 0.115 |
